Assay results published in ChEMBL document CHEMBL1777668, “Structure-activity relationship of cyclic thiacarbocyanine tau aggregation inhibitors” (Bioorg Med Chem Lett, 2011).
Active and inactive are the calls of the source. No cut-off for these calls is given here.

How the values were obtained:
[1] = organism: Homo sapiens; test: Inhibition of octadecyl sulfate-induced recombinant human tau 2N4R aggregation at 1 uM by electron microscopy
[2] = organism: Homo sapiens; test: Inhibition of octadecyl sulfate-induced recombinant human tau 2N4R aggregation at 10 uM by electron microscopy

Row | Compound | inhibition [1] | inhibition [2]
1 | C1=C2\Sc3ccccc3N2CCCC[n+]2c(sc3ccccc32)/C=C/C=C2\Sc3ccccc3N2CCCC[n+]2c(sc3ccccc32)/C=C/1 | Active | Active
2 | C1=C2\Sc3ccccc3N2CCC[n+]2c(sc3ccccc32)/C=C/C=C2\Sc3ccccc3N2CCC[n+]2c(sc3ccccc32)/C=C/1 | inactive | Active

Results, then the compound that gave them:

Row | inhibition [1] | inhibition [2] | Compound
3 |  | Active | C1=C2\Sc3ccccc3N2CCCCC[n+]2c(sc3ccccc32)/C=C/C=C2\Sc3ccccc3N2CCCCC[n+]2c(sc3ccccc32)/C=C/1
4 |  | Active | C1=C2\Sc3ccccc3N2CCCCCCCC[n+]2c(sc3ccccc32)/C=C/C=C2\Sc3ccccc3N2CCCCCCCC[n+]2c(sc3ccccc32)/C=C/1
5 |  | Active | C1=C2\Sc3ccccc3N2CCCCCC[n+]2c(sc3ccccc32)/C=C/C=C2\Sc3ccccc3N2CCCCCC[n+]2c(sc3ccccc32)/C=C/1
6 |  | Active | C1=C2\Sc3ccccc3N2CCCCCCC[n+]2c(sc3ccccc32)/C=C/C=C2\Sc3ccccc3N2CCCCCCC[n+]2c(sc3ccccc32)/C=C/1
